Data set [1] can be described thus: Solubility testing of exendin-4 derivatives (HPLC-UV of supernatant). It is filed as physicochemical. Conditions: pH 7.4. On the procedure: Prior to the testing of solubility and stability of a peptide batch, its content was determined. Therefore, two parameters were investigated, its purity (HPLC-UV) and the amount of salt load of the batch (ion chromatography).
HPLC-UV was performed after 2 h of gentle agitation from the supernatant, which was obtained by 20 min of centrifugation at 4000 rpm.

In data set [2] the target is T1, human GLP-1 receptor (hGLP-1 R) (Homo sapiens, UniProt P43220).
T1 construct: expressed in transfected cells; host or cells: HEK-293
T1 sequence (P43220 24-463): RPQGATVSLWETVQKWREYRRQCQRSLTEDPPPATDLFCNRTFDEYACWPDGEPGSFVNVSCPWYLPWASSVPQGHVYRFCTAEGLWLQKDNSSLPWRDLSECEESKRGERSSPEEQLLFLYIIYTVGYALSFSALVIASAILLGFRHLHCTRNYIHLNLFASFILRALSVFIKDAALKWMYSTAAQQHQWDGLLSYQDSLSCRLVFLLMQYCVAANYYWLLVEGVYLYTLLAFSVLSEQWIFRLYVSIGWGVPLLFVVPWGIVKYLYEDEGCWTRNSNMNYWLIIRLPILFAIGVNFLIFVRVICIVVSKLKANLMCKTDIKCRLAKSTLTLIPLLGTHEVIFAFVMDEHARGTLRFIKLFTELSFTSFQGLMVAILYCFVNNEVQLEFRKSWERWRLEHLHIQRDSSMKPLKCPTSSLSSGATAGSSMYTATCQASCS
Description: cAMP response (HTRF) of HEK-293 cells stably expressing human GLP-1 receptor. It is filed as cell-based. On the procedure:
cAMP content of cells was determined using a kit from Cisbio Corp. (cat. no. 62AM4PEC) based on HTRF (Homogenous Time Resolved Fluorescence). For preparation, cells were split into T175 culture flasks and grown overnight to near confluency in medium (DMEM/10% FBS). Medium was then removed and cells washed with PBS lacking calcium and magnesium, followed by proteinase treatment with accutase (Sigma-Aldrich cat. no. A6964). Detached cells were washed and resuspended in assay buffer (1×HBSS; 20 mM HEPES, 0.1% BSA, 2 mM IBMX) and cellular density determined. They were then diluted to 400000 cells/ml and 25 μl-aliquots dispensed into the wells of 96-well plates. For measurement, 25 μl of test compound in assay buffer was added to the wells, followed by incubation for 30 minutes at room temperature. After addition of HTRF reagents diluted in lysis buffer (kit components), the plates were incubated for 1 hr, followed by measurement of the fluorescence ratio at 665/620 nm. In vitro potency of agonists was quantified by determining the concentrations that caused 50% activation of maximal response (EC50).

For data set [3], the system named is hepatic glycogenolysis. Kind of data set: Blood glucose profile in anesthetized rats. It is filed as in vivo, male Wistar rats.
Description: The method aimed to study a test compound on the process of hepatic glycogenolysis. The rats had free access to food until the start of the experiment. […] The effect of GCG-mimetic on hepatic glycogenolysis and the subsequent hyperglycemic peak in the blood was compared to the effect obtained with a subcutaneous bolus injection of GCG at a dose of 30 μg/kg.
Rats were anaesthetized with an intraperitoneal injection of pentobarbital sodium (60 mg/kg) and ketamine (10 mg/kg) and tracheotomized. Anesthesia was maintained for up to 5 hours by subcutaneous infusion of pentobarbital sodium (adjusted to the anesthetic depth of the individual animal; about 24 mg/kg/h). Body temperature was monitored with a rectal probe thermometer, and temperature was maintained at 37° C. by means of a heated surgical table. Blood samples for glucose analysis (10 μl) were obtained from the tip of the tail every 15 minutes. The rats were allowed to stabilize their blood glucose levels after surgery for up to 2 hours. Then, GCG as reference compound, or the test compound were administered subcutaneously. For GCG a dose of 30 μg/kg was used to induce hepatic glycogenolysis.
The test system of data set [4] is blood glucose. Description: Blood glucose profile in normoglycemic Beagle dogs. It is filed as in vivo, male normoglycemic Beagle dogs.
Description: Male normoglycemic Beagle dogs were fasted overnight before and during the entire experiment. The animals were randomized to groups of n=6 per group. […] The injection solutions were prepared freshly prior to the experiment. The test compound was administered as a single injection via three different routes (s.c., i.m. and i.v.) at doses of 1-100 μg/kg. […] Blood glucose was determined enzymatically (hexokinase method) from whole blood, insulin was analyzed from K-EDTA plasma with a dog-specific ELISA assay.
Data set [5] concerns the target T2, human glucagon receptor (hGLUC R) (Homo sapiens, UniProt P47871).
T2 construct: expressed in transfected cells; host or cells: HEK-293
Description: cAMP response (HTRF) of HEK-293 cells stably expressing human glucagon receptor. Conditions: Table 4; read-out: EC50 hGLUC R. It is filed as cell-based. An outline of the steps: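 HTRF read-out of cellular cAMP after 30 min compound exposure at room temperature. Accutase-detached cells were suspended at 400000 cells/ml in HBSS buffer containing 20 mM HEPES, 0.1% BSA and 2 mM IBMX phosphodiesterase inhibitor.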
(In TR-FRET formats the signal depends on donor and acceptor labels being close together.)

Non-standard residues stand in square brackets, D forms with d. Residues, ends and D or L forms follow the SMILES beside them. Ala(4-thiazolyl) = N[C@@H](Cc1cscn1)C(=O)O; Chg = N[C@H](C(=O)O)C1CCCCC1; Nle = CCCC[C@H](N)C(=O)O A value given as a limit tells only on which side of the number the result lay.

Usually solubility stands for the dissolved amount per volume that the medium holds. Low values mean a poorly soluble substance, high ones a readily soluble substance. A word on the EC50: it is the concentration giving half of the maximal effect.

T2 sequence (P47871 26-477): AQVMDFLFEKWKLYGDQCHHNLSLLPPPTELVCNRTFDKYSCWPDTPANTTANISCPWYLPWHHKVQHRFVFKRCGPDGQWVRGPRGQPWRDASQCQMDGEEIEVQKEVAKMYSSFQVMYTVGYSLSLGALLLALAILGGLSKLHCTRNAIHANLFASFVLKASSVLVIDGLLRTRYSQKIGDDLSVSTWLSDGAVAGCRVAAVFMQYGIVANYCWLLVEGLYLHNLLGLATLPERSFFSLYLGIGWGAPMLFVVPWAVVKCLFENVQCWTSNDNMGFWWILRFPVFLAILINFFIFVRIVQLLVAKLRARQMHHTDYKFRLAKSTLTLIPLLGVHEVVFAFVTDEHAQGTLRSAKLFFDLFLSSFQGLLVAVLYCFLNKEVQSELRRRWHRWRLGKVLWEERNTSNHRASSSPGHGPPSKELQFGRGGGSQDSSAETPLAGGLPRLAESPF

`CC[C@H](C)[C@H](NC(=O)[C@H](Cc1ccccc1)NC(=O)[C@H](CCC(=O)O)NC(=O)[C@H](CCC(N)=O)NC(=O)[C@H](C)NC(=O)[C@H](CCCNC(=N)N)NC(=O)[C@H](CCCNC(=N)N)NC(=O)[C@H](CO)NC(=O)[C@H](CCC(=O)O)NC(=O)[C@H](CC(C)C)NC(=O)[C@H](CCC(N)=O)NC(=O)[C@H](CCCCN)NC(=O)[C@H](CO)NC(=O)[C@H](Cc1ccc(O)cc1)NC(=O)[C@H](CC(=O)O)NC(=O)[C@H](CO)NC(=O)[C@@H](NC(=O)[C@H](Cc1ccccc1)NC(=O)[C@@H](NC(=O)CNC(=O)[C@H](CCC(N)=O)NC(=O)[C@H](CO)NC(=O)[C@@H](N)Cc1cscn1)[C@@H](C)O)[C@@H](C)O)C(=O)N[C@@H](CCC(=O)O)C(=O)N[C@@H](Cc1c[nH]c2ccccc12)C(=O)N[C@@H](CC(C)C)C(=O)N[C@@H](CC(C)C)C(=O)N[C@@H](C)C(=O)NCC(=O)NCC(=O)N1CCC[C@H]1C(=O)N[C@@H](CCC(=O)O)C(=O)N[C@@H](CO)C(=O)NCC(=O)N[C@@H](C)C(=O)N1CCC[C@H]1C(=O)N1CCC[C@H]1C(=O)N1CCC[C@H]1C(=O)N[C@@H](CO)C(=O)O` [SEQ ID NO 5, Tza-SQGTFTSDYSKQLESRRAQEFIEWLLAGGPESGAPPPS-OH] came in with a solubility at 2 h in data set [1] greater than 10000 µg/mL. The compound also gave an EC50 in data set [2] (Table 4) of 2.19 nM. Also, the “time of blood glucose peak after injection” value is on record as 30 min in data set [3] (10 μg/kg s.c.), 45 min in data set [3] (20 μg/kg s.c.) and 90 min in data set [3] (30 μg/kg s.c.). Besides, in data set [3] (20 μg/kg s.c.), the “blood glucose excursion compared to 30 μg/kg GCG” value is on record as “nearly comparable shape of blood glucose excursion”. In addition, in data set [3] (10 to 30 μg/kg s.c.), the “effect on blood glucose” value was “dose-dependent increase of blood glucose”. In addition, in data set [4] (10 μg/kg s.c., dog), the “peak increase of blood glucose” value was 3.5 to 4 mmol/L. The “subcutaneous versus intramuscular injection” value in data set [4] (dog) was “no difference in activity and blood glucose time-action profile”. Further, the “glucose excursion at higher doses” value in data set [4] (doses beyond 10 μg/kg s.c., dog) is reported as “did no longer result in higher glucose excursion”. In addition, the “effect on blood glucose relative to human glucagon” value in data set [4] (s.c. injection, dog) is “mimicked the effect of human glucagon on blood glucose”. Besides, in data set [4] (s.c., dog, versus human glucagon), the “duration of the glucose response” value was “slightly longer”. Besides, the “induction of a blood glucose response, SEQ. ID 5 vs. SEQ. ID 6” value in data set [4] (s.c., normoglycemic dogs) is on record as “similarly active”. Besides, the “activity by route of administration” value in data set [4] (subcutaneous, intramuscular and intravenous injection, dog) was “active through all parenteral routes”.
`CCCC[C@H](NC(=O)[C@H](CCC(N)=O)NC(=O)[C@H](CCCCN)NC(=O)[C@H](CO)NC(=O)[C@H](CC(C)C)NC(=O)[C@H](CC(=O)O)NC(=O)[C@H](CO)NC(=O)[C@@H](NC(=O)[C@H](Cc1ccccc1)NC(=O)[C@@H](NC(=O)CNC(=O)[C@H](CCC(N)=O)NC(=O)[C@H](CO)NC(=O)[C@@H](N)Cc1cscn1)[C@@H](C)O)[C@@H](C)O)C(=O)N[C@@H](CCC(=O)O)C(=O)N[C@@H](CO)C(=O)N[C@@H](CCCNC(=N)N)C(=O)N[C@@H](CCCNC(=N)N)C(=O)N[C@@H](C)C(=O)N[C@@H](CCC(N)=O)C(=O)N[C@@H](CC(=O)O)C(=O)N[C@@H](Cc1ccccc1)C(=O)N[C@H](C(=O)N[C@@H](CCC(=O)O)C(=O)N[C@@H](Cc1c[nH]c2ccccc12)C(=O)N[C@@H](CC(C)C)C(=O)N[C@@H](CC(C)C)C(=O)N[C@@H](C)C(=O)N[C@H](C(=O)NCC(=O)N1CCC[C@H]1C(=O)N[C@@H](CCC(=O)O)C(=O)N[C@@H](CO)C(=O)NCC(=O)N[C@@H](C)C(=O)N1CCC[C@H]1C(=O)N1CCC[C@H]1C(=O)N1CCC[C@H]1C(=O)N[C@@H](CO)C(=O)O)[C@@H](C)O)[C@@H](C)CC` [SEQ ID NO 3, Tza-S-Q-G-T-F-T-S-D-L-S-K-Q-Nle-ESRRAQDFIEWLLATGPESGAPPPS-OH] (H-[Ala(4-thiazolyl)]SQGTFTSDLSKQ[Nle]ESRRAQDFIEWLLATGPESGAPPPS-OH) gave a solubility at 2 h in data set [1] greater than 10000 µg/mL. Also, the EC50 in data set [2] (Table 4) was determined as 44.3 nM; in data set [5] it was 0.0018 nM.
In the case of `CC[C@H](C)[C@H](NC(=O)[C@H](Cc1ccccc1)NC(=O)[C@H](CCC(=O)O)NC(=O)[C@H](CCC(N)=O)NC(=O)[C@H](C)NC(=O)[C@H](CCCNC(=N)N)NC(=O)[C@H](CCCNC(=N)N)NC(=O)[C@H](CO)NC(=O)[C@H](CCC(=O)O)NC(=O)[C@H](CC(C)C)NC(=O)[C@H](CCC(N)=O)NC(=O)[C@H](CCCCN)NC(=O)[C@H](CO)NC(=O)[C@@H](NC(=O)[C@H](CC(=O)O)NC(=O)[C@H](CO)NC(=O)[C@@H](NC(=O)[C@H](Cc1ccccc1)NC(=O)[C@@H](NC(=O)CNC(=O)[C@H](CCC(N)=O)NC(=O)[C@H](CO)NC(=O)[C@@H](N)Cc1cscn1)[C@@H](C)O)[C@@H](C)O)C(C)C)C(=O)N[C@@H](CCC(=O)O)C(=O)N[C@@H](Cc1c[nH]c2ccccc12)C(=O)N[C@@H](CC(C)C)C(=O)N[C@@H](CC(C)C)C(=O)N[C@@H](C)C(=O)NCC(=O)NCC(=O)N1CCC[C@H]1C(=O)N[C@@H](CCC(=O)O)C(=O)N[C@@H](CO)C(=O)NCC(=O)N[C@@H](C)C(=O)N1CCC[C@H]1C(=O)N1CCC[C@H]1C(=O)N1CCC[C@H]1C(=O)N[C@@H](CO)C(=O)O` [SEQ ID NO 9, Tza-SQGTFTSDVSKQLESRRAQEFIEWLLAGGPESGAPPPS-OH] (H-[Ala(4-thiazolyl)]SQGTFTSDVSKQLESRRAQEFIEWLLAGGPESGAPPPS-OH), the solubility at 2 h in data set [1] is greater than 10000 µg/mL. Further, the concentration for a half-maximal effect (EC50) in data set [5] was 0.0022 nM.
Turning to `CC[C@H](C)[C@H](NC(=O)[C@H](Cc1ccccc1)NC(=O)[C@H](CC(=O)O)NC(=O)[C@H](CCC(N)=O)NC(=O)[C@H](C)NC(=O)[C@H](CCCNC(=N)N)NC(=O)[C@H](CCCNC(=N)N)NC(=O)[C@H](CO)NC(=O)[C@H](CCC(=O)O)NC(=O)[C@H](CC(C)C)NC(=O)[C@H](CCC(N)=O)NC(=O)[C@H](CCCCN)NC(=O)[C@H](CO)NC(=O)[C@@H](NC(=O)[C@H](CC(=O)O)NC(=O)[C@H](CO)NC(=O)[C@@H](NC(=O)[C@H](Cc1ccccc1)NC(=O)[C@@H](NC(=O)CNC(=O)[C@H](CCC(N)=O)NC(=O)[C@H](CO)NC(=O)[C@@H](N)Cc1cscn1)[C@@H](C)O)[C@@H](C)O)C1CCCCC1)C(=O)N[C@@H](CCC(=O)O)C(=O)N[C@@H](Cc1c[nH]c2ccccc12)C(=O)N[C@@H](CC(C)C)C(=O)N[C@@H](CC(C)C)C(=O)N[C@@H](C)C(=O)N[C@H](C(=O)NCC(=O)N1CCC[C@H]1C(=O)N[C@@H](CCC(=O)O)C(=O)N[C@@H](CO)C(=O)NCC(=O)N[C@@H](C)C(=O)N1CCC[C@H]1C(=O)N1CCC[C@H]1C(=O)N1CCC[C@H]1C(=O)N[C@@H](CO)C(=O)O)[C@@H](C)O` [SEQ ID NO 23, Tza-S-Q-G-T-F-T-S-D-Chg-SKQLESRRAQDFIEWLLATGPESGAPPPS-OH] (H-[Ala(4-thiazolyl)]SQGTFTSD[Chg]SKQLESRRAQDFIEWLLATGPESGAPPPS-OH; N-terminus assumed), in data set [1], the solubility at 2 h is greater than 10000 µg/mL.
Compound `CC[C@H](C)[C@H](NC(=O)[C@H](Cc1ccccc1)NC(=O)[C@H](CC(=O)O)NC(=O)[C@H](CCC(N)=O)NC(=O)[C@H](C)NC(=O)[C@H](CCCNC(=N)N)NC(=O)[C@H](CCCNC(=N)N)NC(=O)[C@H](CO)NC(=O)[C@H](CCC(=O)O)NC(=O)[C@H](CC(C)C)NC(=O)[C@H](CCC(N)=O)NC(=O)[C@H](CCCCN)NC(=O)[C@H](CO)NC(=O)[C@H](CC(C)C)NC(=O)[C@H](CC(=O)O)NC(=O)[C@H](CO)NC(=O)[C@@H](NC(=O)[C@H](Cc1ccccc1)NC(=O)[C@@H](NC(=O)CNC(=O)[C@H](CCC(N)=O)NC(=O)[C@H](CO)NC(=O)[C@@H](N)Cc1cscn1)[C@@H](C)O)[C@@H](C)O)C(=O)N[C@@H](CCC(=O)O)C(=O)N[C@@H](Cc1c[nH]c2ccccc12)C(=O)N[C@@H](CC(C)C)C(=O)N[C@@H](CC(C)C)C(=O)N[C@@H](C)C(=O)N[C@H](C(=O)NCC(=O)N1CCC[C@H]1C(=O)N[C@@H](CCC(=O)O)C(=O)N[C@@H](CO)C(=O)NCC(=O)N[C@@H](C)C(=O)N1CCC[C@H]1C(=O)N1CCC[C@H]1C(=O)N1CCC[C@H]1C(=O)N[C@@H](CO)C(=O)O)[C@@H](C)O` [SEQ ID NO 15, Tza-SQGTFTSDLSKQLESRRAQDFIEWLLATGPESGAPPPS-OH] (H-[Ala(4-thiazolyl)]SQGTFTSDLSKQLESRRAQDFIEWLLATGPESGAPPPS-OH) displayed a solubility at 2 h in data set [1] greater than 10000 µg/mL. Besides, the half-maximal effective concentration (EC50) in data set [2] (Table 4) was 34.5 nM; in data set [2] (Table 5, Tza vs. His in position 1), 19.7 nM; in data set [5], 0.0022 nM.

The values are drawn from patent US9932381B2, “Exendin-4 derivatives as selective glucagon receptor agonists” (priority 2014, dated 2018).
